Reference: patent US5770687A, “Comformationally constrained backbone cyclized somatostatin analogs” (Peptor Limited, priority 1996, dated 1998)
Like-named read-outs stand apart in the source and are kept apart here. Peptide text beside a SMILES is read from it.

How the values were obtained:
[1] = biological target: T1, SSTR-4 (Homo sapiens, UniProt P31391); settings: Table 22; known SST analogs, literature values; cited from earlier work
[2] = biological target: T2, rat SSTR-5 (Rattus norvegicus, UniProt P30938); settings: Table 22; known SST analogs, literature values; read-out: IC50 value rSSTR 5; cited from earlier work
T2 sequence (P30938 1-363): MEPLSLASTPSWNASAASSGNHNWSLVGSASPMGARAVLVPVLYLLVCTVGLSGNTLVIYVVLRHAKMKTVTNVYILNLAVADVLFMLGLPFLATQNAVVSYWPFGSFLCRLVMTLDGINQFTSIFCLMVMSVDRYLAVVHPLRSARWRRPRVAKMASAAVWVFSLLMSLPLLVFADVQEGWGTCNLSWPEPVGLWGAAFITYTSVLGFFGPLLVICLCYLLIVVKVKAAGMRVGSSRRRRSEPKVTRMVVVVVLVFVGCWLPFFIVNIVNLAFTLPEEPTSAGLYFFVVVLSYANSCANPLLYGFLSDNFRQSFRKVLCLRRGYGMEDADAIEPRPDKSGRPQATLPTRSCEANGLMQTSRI

[3] = biological target: T3, human SSTR-5 (Homo sapiens, UniProt P35346); settings: Table 22; known SST analogs, literature values; read-out: IC50 value hSSTR 5; cited from earlier work
[4] = biological target: T1, SSTR-4; assay: Radioligand binding, inhibition of 125I-Tyr11-SRIF binding to cloned SSTR-4
Experimental: (§1) The somatostatin analogs were tested for their potency in inhibition of the binding of ^125 I-Tyr^11 -SRIF (based on the method described by Raynor et. al., Molecular Pharmacology 43, 838-844, 1993) to membrane preparations expressing the transmembranal somatostatin receptors (SSTR-1,2,3,4 or 5). The receptor preparations used for these tests were either from the cloned receptors selectively and stably expressed in Chinese Hamster Ovary (CHO) cells or from cell lines naturally expressing the SSTRs. […] The binding reactions were filtered, the filters were washed and the bound radioactivity was counted in gamma counter. […] In order to validate positive signals of the binding tests, and to eliminate non-specific signals, samples of irrelevant peptides, such as GnRH, that were synthesized and handled using the same procedures, were tested in the same assays as negative control samples.

[5] = biological target: T3, human SSTR-5; assay: Radioligand binding, inhibition of 125I-Tyr11-SRIF binding to cloned human SSTR-5
Experimental: as §1

[6] = biological target: T4, SSTR-1 (Homo sapiens, UniProt P30872); assay: Radioligand binding, inhibition of 125I-Tyr11-SRIF binding to cloned SSTR-1
Experimental: as §1

[7] = biological target: T2, rat SSTR-5; assay: Radioligand binding, inhibition of 125I-Tyr11-SRIF binding to cloned rat SSTR-5
Experimental: as §1

[8] = biological target: T5, SSTR-3 (Homo sapiens, UniProt P32745); assay: Radioligand binding, inhibition of 125I-Tyr11-SRIF binding to cloned SSTR-3
Experimental: as §1

[9] = biological target: T5, SSTR-3; settings: Table 22; known SST analogs, literature values; cited from earlier work
[10] = biological target: T4, SSTR-1; settings: Table 22; known SST analogs, literature values; cited from earlier work
[11] = tested on: SSTR-2; settings: Table 22; known SST analogs, literature values; cited from earlier work

T3 sequence (P35346 whole entry): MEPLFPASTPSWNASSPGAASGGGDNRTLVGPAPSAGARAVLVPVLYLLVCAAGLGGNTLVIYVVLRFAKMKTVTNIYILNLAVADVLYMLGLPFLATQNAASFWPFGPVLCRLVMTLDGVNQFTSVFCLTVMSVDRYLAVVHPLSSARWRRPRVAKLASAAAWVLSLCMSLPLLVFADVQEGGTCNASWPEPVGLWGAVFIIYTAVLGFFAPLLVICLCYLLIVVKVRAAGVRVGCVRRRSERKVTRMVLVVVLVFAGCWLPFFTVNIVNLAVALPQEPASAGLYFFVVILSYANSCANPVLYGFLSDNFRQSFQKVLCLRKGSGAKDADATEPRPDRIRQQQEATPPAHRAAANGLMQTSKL
T1 sequence (P31391 whole entry, species assumed): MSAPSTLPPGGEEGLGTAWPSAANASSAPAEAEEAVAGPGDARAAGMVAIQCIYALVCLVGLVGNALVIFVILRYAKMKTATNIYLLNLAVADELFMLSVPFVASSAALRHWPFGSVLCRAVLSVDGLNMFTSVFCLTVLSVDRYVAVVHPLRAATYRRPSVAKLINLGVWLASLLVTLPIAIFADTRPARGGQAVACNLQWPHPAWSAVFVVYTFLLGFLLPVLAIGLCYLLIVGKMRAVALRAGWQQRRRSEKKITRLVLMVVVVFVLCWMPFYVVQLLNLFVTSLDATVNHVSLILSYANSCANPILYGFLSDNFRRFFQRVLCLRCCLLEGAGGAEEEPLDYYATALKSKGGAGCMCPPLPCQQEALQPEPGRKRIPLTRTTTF
T5 sequence (P32745 whole entry, species assumed): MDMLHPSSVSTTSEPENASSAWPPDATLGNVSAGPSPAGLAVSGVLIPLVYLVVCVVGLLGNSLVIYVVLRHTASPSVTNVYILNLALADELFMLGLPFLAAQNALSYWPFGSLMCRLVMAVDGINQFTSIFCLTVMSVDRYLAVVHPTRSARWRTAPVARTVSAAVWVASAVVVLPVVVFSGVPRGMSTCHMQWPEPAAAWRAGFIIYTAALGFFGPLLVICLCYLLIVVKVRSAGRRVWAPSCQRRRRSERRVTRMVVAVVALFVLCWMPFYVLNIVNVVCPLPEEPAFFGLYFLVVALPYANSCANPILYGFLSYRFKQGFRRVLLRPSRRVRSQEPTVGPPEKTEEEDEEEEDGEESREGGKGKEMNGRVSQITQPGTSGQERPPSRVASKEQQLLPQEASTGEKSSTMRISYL
T4 sequence (P30872 whole entry, species assumed): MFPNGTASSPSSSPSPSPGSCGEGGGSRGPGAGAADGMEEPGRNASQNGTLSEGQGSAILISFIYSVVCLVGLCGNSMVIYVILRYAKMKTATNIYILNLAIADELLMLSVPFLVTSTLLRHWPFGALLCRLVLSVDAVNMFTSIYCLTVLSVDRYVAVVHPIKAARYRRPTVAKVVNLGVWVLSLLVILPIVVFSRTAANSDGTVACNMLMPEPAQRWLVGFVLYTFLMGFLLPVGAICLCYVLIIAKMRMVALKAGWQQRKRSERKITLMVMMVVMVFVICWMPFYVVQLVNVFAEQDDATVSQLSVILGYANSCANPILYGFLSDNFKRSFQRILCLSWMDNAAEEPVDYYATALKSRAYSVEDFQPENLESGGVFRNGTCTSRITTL

IC50 [4]	IC50 [5]	IC50 [6]	IC50 [7]	IC50 [8]	Compound	IC50 [1]	IC50 [2]	IC50 [3]	IC50 [9]	IC50 [10]	IC50 [11]
					DPhe^5 -Phe^6 -Phe^7 -DTrp^8 -Lys^9 -Thr^10 -Phe^11 -Thr^12 -NH2 [BIM-23052]	18 nM	0.004 nM	4 nM			
> 10000 nM	> 2000 nM	2500 nM	500 nM	> 1000 nM	C[C@@H](O)[C@H](NC(=O)CN1CCC(=O)NCCCN(C(=O)[C@H](N)Cc2ccccc2)CC(=O)N[C@@H](Cc2ccccc2)C(=O)N[C@H](Cc2c[nH]c3ccccc23)C(=O)N[C@@H](CCCCN)C(=O)N[C@@H]([C@@H](C)O)C1=O)C(N)=O [PTR 3010] (HELM PEPTIDE1{[dF].[O=C(CN(CCCN[*:3])[*:1])[*:2]].F.[dW].K.T.[O=C(CN(CCC(=O)[*:3])[*:1])[*:2]].T.[am]}$PEPTIDE1,PEPTIDE1,2:R3-7:R3$$$V2.0)						
					CC(C)[C@@H]1NC(=O)[C@H](CCCCN)NC(=O)[C@@H](Cc2c[nH]c3ccccc23)NC(=O)[C@H](Cc2ccc(O)cc2)NC(=O)[C@@H](NC(=O)[C@H](N)Cc2ccc3ccccc3c2)CSSC[C@@H](C(=O)N[C@H](C(N)=O)[C@@H](C)O)NC1=O [Somatuline]		0.5 nM		6 nM	800 nM	2 nM
